In brackets after ≈: the same amount, converted by molar mass. Like-named read-outs stand apart in the source and are kept apart here.
How the values were obtained:
[1] = tested on: Methicillin-resistant S. aureus; assay: Antimicrobial activity (MIC), MRSA; assay type: cell-based; details: Staphylococcus aureus; Bacteria: MRSA; MIC refers to lethal concentrations
IL-8 = assay: PHA-induced release of IL-8 from human buffy coats; assay type: cell-based; details: PHA 5 μg/ml, 16 hours, inhibition
Description: (§1) The study was conducted in two phases. The first phase included optimization of the test methodology and included also dose-range finding studies, using buffy coats from 3 human donors, stimulated with phytohemagglutinin (PHA). The concentrations of the test article and the duration of exposure were optimized to obtain acceptable dose-response ratios. Following optimization of the test conditions, a final protocol was issued. In the Main Study, buffy coats from 5 healthy human male donors were stimulated with PHA, 5 μg/ml.
(§2) The inhibitory effects of three concentrations of NK and one concentration of ketotifen were evaluated in the Main Study. The buffy coats were resuspended in assay media and were pre-incubated for 30 min with either vehicle/saline, ketotifen (10 μM) or norketotifen (1.0; 10 or 100 μM). Following these preincubations, the white blood cell suspensions were stimulated for 16 hours with PHA, 5 μg/ml. The cell system supernatants were then harvested and stored frozen.

[2] = Lung/plasma distribution of norketotifen in rats; assay type: in vivo, SPD rats; details: for Kp: male, SPD, rat, lung/plasma, 20 mg/kg/day; for Lung Concentration / Plasma Concentration: rats
Description: Groups of male SPD rats (200-230 g) were administered racemic norketotifen hydrogen Fumarate 20 mg/kg/day (=14.4 mg/kg/day of the free base) for 10 consecutive days. Lung and plasma samples were collected and prepared and the concentrations of RS-norketotifen were determined using a qualified LC-MS-MS analytical method. LLQ (Lowest Level of Quantification) was <0.5 ng/ml.

Moraxella catarrhalis = assay: Antimicrobial activity (MIC), Moraxella catarrhalis; assay type: cell-based; details: Bacteria: Mc, MIC refers to lethal concentrations
IL-6 = assay: PHA-induced release of IL-6 from human buffy coats; assay type: cell-based; details: PHA 5 μg/ml, 16 hours, inhibition
Description: as §1, §2

sedation [3] = details: orally administered, humans; U.S. Pat. Nos. 9,138,431 and 9,345,697; cited from earlier work
Streptococcus pneumoniae = assay: Antimicrobial activity (MIC), Streptococcus pneumoniae; assay type: cell-based; details: Bacteria: Sp, MIC refers to lethal concentrations
human M-3 (hM3) receptor = human M-3 (hM3) receptor (Homo sapiens, UniProt P20309); assay: Muscarinic M-3 receptor binding assay; details: calculated from mean values, as norketotifen free base; NK hydrogen fumarate tested in duplicates, 1.0E-08M to 1.0E-04M
human M-3 (hM3) receptor, sequence (P20309 whole entry): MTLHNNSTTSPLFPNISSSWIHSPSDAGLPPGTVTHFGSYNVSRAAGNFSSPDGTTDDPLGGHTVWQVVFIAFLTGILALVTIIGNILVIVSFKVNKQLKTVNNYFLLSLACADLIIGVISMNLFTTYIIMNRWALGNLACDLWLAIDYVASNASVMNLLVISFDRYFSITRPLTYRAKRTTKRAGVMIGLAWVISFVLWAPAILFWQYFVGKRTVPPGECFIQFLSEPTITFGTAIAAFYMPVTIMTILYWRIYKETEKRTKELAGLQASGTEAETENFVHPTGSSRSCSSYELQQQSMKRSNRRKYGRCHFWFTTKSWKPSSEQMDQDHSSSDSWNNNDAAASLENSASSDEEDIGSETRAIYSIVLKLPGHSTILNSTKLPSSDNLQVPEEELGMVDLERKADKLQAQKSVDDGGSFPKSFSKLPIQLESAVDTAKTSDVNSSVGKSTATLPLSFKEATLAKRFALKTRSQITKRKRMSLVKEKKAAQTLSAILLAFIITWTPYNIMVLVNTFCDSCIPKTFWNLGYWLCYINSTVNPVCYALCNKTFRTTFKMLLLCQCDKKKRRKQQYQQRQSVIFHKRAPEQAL
Excerpt: The current study used human M-3 (hM3) receptor and NK hydrogen fumarate was the antagonist in the current studies. The study used NK in duplicates at five dose-levels from 1.0E-08M to 1.0E-04M.

IL-2 = assay: PHA-induced release of IL-2 from human buffy coats; assay type: cell-based; details: PHA 5 μg/ml, 16 hours, inhibition
Description: as §1, §2

TNF-α = assay: PHA-induced release of TNF-α from human buffy coats; assay type: cell-based; details: PHA 5 μg/ml, 16 hours, inhibition
Description: as §1, §2

[4] = Plasma concentration after sc infusion (follow-up study); assay type: in vivo; details: Sprague-Dawley, rat, 1 mg/kg/day, after sc infusion of RS-norketotifen for 5 days, rats
IL-10 = assay: PHA-induced release of IL-10 from human buffy coats; assay type: cell-based; details: PHA 5 μg/ml, 16 hours, inhibition
Description: as §1, §2

sedation [5] = details: art-accepted mouse model of sedation; U.S. Pat. Nos. 7,226,934 and 7,557,128; cited from earlier work
[6] = Lung/plasma distribution of norketotifen in dogs; assay type: in vivo, Beagle dogs; details: for Post-dose Lung Concentration / Post-dose Plasma Concentration / Kp: dog; for Post-dose Lung Concentration / Post-dose Plasma Concentration: oral 8.0 mg/kg/day NK-FB for four days; for Kp: female, Beagle, lung/plasma, 11.46 mg/kg/day
Description: One group (N=3) of female Beagle dogs (8 to 10 kg/24 to 28 months) were administered racemic norketotifen hydrogen fumarate (RS-NK-HF) 11.46 mg/kg/day for 4 consecutive days. (11.46 mg of NK-HF is equal to 8.0 mg of the free base (RS-NK-FB).
Plasma samples were collected daily on Days 2, 3 and 4. The last blood samples were taken four hours after dosing on Day 4. Lung and plasma concentrations of norketotifen were determined using a qualified LC-MS-MS analytical method. LLQ was <0.5 ng/ml. Immediately after blood collection on Day 4, all animals were euthanized with an overdose of pentobarbital, administered intravenously, followed by exsanguination. Lung tissue samples (approximately 1 g each) were collected from each animal from the left and right pulmonary lobes, samples were trimmed and dried of any access blood using absorbent paper, weighed and then kept in conical tubes frozen on dry ice and stored at −80° C. pending analysis. Six samples from each animal (3 samples per side) were analyzed.

Haemophilus influenza = assay: Antimicrobial activity (MIC), Haemophilus influenza; assay type: cell-based; details: Bacteria: Hi, MIC refers to lethal concentrations
Water solubility = assay type: physicochemical
[7] = Dose Day 4, once daily oral 14.4 mg/kg free base
[8] = Dose Day 7, once daily oral 14.4 mg/kg free base
[9] = Last dose + 24 hrs, once daily oral 14.4 mg/kg free base for 10 days
[10] = Last dose, Day 10, once daily oral 14.4 mg/kg free base

Structure (SMILES): O=C1Cc2ccccc2C(=C2CCNCC2)c2ccsc21 (racemic) [norketotifen]
- MIC [1]: 2000 µg/mL (≈ 6770 µM)
- Effect on PHA-induced release of IL-8 (%) (IL-8; 1 uM): 10.29^2%
- Effect on PHA-induced release of IL-8 (%) (IL-8; 10 uM): 34.36^1%
- Effect on PHA-induced release of IL-8 (%) (IL-8; 100 uM): 78.29^1%
- Kp ([2]; oral, Dose Day 4, read-out: Lung/Plasma Ratio in Rats): 133
- Kp ([2]; oral, Dose Day 7, read-out: Lung/Plasma Ratio in Rats): 92
- Kp ([2]; oral, Last dose + 24 hrs, read-out: Lung/Plasma Ratio in Rats): 107
- Kp ([2]; oral, Last dose, Day 10, read-out: Lung/Plasma Ratio in Rats): 79
- Kp ([2]; po, mean of the four study days, oral dosing, read-out: Lung/Plasma Ratio in Rats, Mean ± SEM): 103
- Lung/Plasma Ratio in Rats, Mean ± SEM ([2]; mean of the four study days, oral dosing): 100
- Lung/Plasma Ratio in Rats, Mean ± SEM ([2]; mean of the four study days, oral dosing, listed as NK): 103 ± 11.6
- Lung/Plasma Ratio in Rats, Mean ± SEM ([2]; mean of the four study days, oral dosing, listed as RS-norketotifen): ~100
- Lung Concentration [2, 7]: 23612 ng/g
- Plasma Concentration [2, 7]: 178 ng/mL
- Lung Concentration [2, 8]: 25355 ng/g
- Plasma Concentration [2, 8]: 276 ng/mL
- Lung Concentration [2, 9]: 890 ng/g
- Plasma Concentration [2, 9]: 8.3 ng/mL
- Lung Concentration [2, 10]: 18171 ng/g
- Plasma Concentration [2, 10]: 229 ng/mL
- MIC (Moraxella catarrhalis): 0.25 mg/mL (≈ 846 µM)
- MIC (Moraxella catarrhalis; Moraxella catarrhalis, read-out: MIC): 0.25 mg/mL (≈ 846 µM)
- Effect on PHA-induced release of IL-6 (%) (IL-6; 1 uM): 0.00%
- Effect on PHA-induced release of IL-6 (%) (IL-6; 10 uM): 33.13^1%
- Effect on PHA-induced release of IL-6 (%) (IL-6; 100 uM): 88.16^1%
- Sedative side effects (sedation [3]): free from sedative side effects
- MIC (Streptococcus pneumoniae): 0.5 mg/mL (≈ 1690 µM)
- MIC (Streptococcus pneumoniae; Streptococcus pneumoniae, read-out: MIC): 0.5 mg/mL (≈ 1690 µM)
- Ki (human M-3 (hM3) receptor): 2200 nM
- Effect on PHA-induced release of IL-2 (%) (IL-2; 1 uM): 0.00%
- Effect on PHA-induced release of IL-2 (%) (IL-2; 10 uM): 46.63^1%
- Effect on PHA-induced release of IL-2 (%) (IL-2; 100 uM): 93.47^1%
- Effect on PHA-induced release of TNF-α (%) (TNF-α; 1 uM): 45.57^2%
- Effect on PHA-induced release of TNF-α (%) (TNF-α; 10 uM): 63.07^1%
- Effect on PHA-induced release of TNF-α (%) (TNF-α; 100 uM): 95.68^1%
- concentration at 5 days [4]: 4 ± 0.24 ng/mL
- Effect on PHA-induced release of IL-10 (%) (IL-10; 1 uM): 12.71^2%
- Effect on PHA-induced release of IL-10 (%) (IL-10; 10 uM): 24.80^2%
- Effect on PHA-induced release of IL-10 (%) (IL-10; 100 uM): 90.40^1%
- Sedative effects (sedation [5]): significant sedative effects
- Post-dose Lung Concentration ([6]; animal 001, Day 4): 23590 ng/g
- Post-dose Plasma Concentration ([6]; animal 001, Day 4): 301 ng/mL
- Post-dose Lung Concentration ([6]; animal 002, Day 4): 79546 ng/g
- Post-dose Plasma Concentration ([6]; animal 002, Day 4): 1651 ng/mL
- Post-dose Lung Concentration ([6]; animal 003, Day 4): 61093 ng/g
- Post-dose Plasma Concentration ([6]; animal 003, Day 4): 733 ng/mL
- Kp ([6]; oral, animal 001, Day 4, read-out: Lung / Plasma Ratio in Dogs): 78.4
- Kp ([6]; oral, animal 002, Day 4, read-out: Lung / Plasma Ratio in Dogs): 48.2
- Kp ([6]; oral, animal 003, Day 4, read-out: Lung / Plasma Ratio in Dogs): 83.3
- Kp ([6]; po, mean of three dogs, Day 4, once daily oral dosing, read-out: Lung / Plasma Ratio in Dogs, Mean ± SEM): 70
- Lung / Plasma Ratio in Dogs, Mean ± SEM ([6]; mean of three dogs, Day 4, once daily oral dosing, listed as NK): 70.0 ± 11.0
- MIC (Haemophilus influenza): about 0.25 mg/mL
- MIC (Haemophilus influenza; Haemophilus, read-out: MIC): 250 µg/mL (≈ 846 µM)
- Water solubility (Water solubility): about 2%
- solubility (Water solubility; water): ~20 mg/mL (≈ 67700 µM)

Reference: patent publication US10959992B2, “Methods of treatment of asthma and COPD” (Bridge Pharma, Inc., priority 2019, dated 2021)
